Measurements taken from patent publication US20200147149A1, “COMPOSITIONS AND METHODS FOR THE MODULATION OF GUT SENSORY CELLS” (Duke University, priority 2017, published 2020).
“Also recorded” adds a separate entry of the source.

Tests used:
vagus nerve = experiment: Vagus nerve recording during intraluminal (duodenal) nutrient or CCK perfusion; format: in vivo, mouse; conditions: D-glucose 150 mM perfused intraluminally, wild-type mice
Procedure: Wild-type control (n=5-9), CckCRE_ChR2-tdTomato (n=6), CckCRE_Halorhodopsin-YFP (n=5), and Vglut1CRE_ChR2-YFP (n=6) mice were used for vagal recordings. Mice were anesthetized with 3 mg/g-mouse urethane 1 hour before surgery then with 0.5-1% isoflurane. A section of neck skin was removed between the jaw and clavicle. The thyroid was reflected bilaterally, and the carotid bundle was exposed using coarse dissection. The carotid nerve was separated from the vagus nerve using a curved blunt probe. Two platinum iridium wires (0.001″ diameter, PTFE coated, 10% Ir 90% Pt; Medwire by Sigmund Cohn Corp) were looped around the vagus nerve for recording. Mineral oil was used to insulate the vagus nerve from surrounding tissue. The small intestine was exposed by removing a section of skin and peritoneum. A 20 gauge gavage needle was surgically inserted through the stomach wall and into the duodenum. The gavage needle was sutured in place beyond the pyloric sphincter. Saline and stimulant tubes were connected to the gavage needle. For optogenetic experiments, a fiber optic cable (FT020, ThorLabs) was threaded through the gavage needle into the lumen of the duodenum. A perfusion exit incision was made 10 cm distal to the pyloric sphincter. During each recording, PBS was constantly perfused through the duodenum using a peristaltic pump (Cole-Parmer) at the lowest setting for a flow rate of ˜400 uL PBS per minute. Stimulation conditions were applied after recording 2 minutes of baseline activity. During whole nutrient stimulation conditions, PBS perfusion was continuous and 200 μL of ENSURE® was perfused through the second tube for 1 minute using a syringe pump. […] During CCK stimulation conditions, PBS perfusion was continuous, and 200 μL of 2.9 μM CCK octapeptide-sulfated (BaChem) was perfused through the second tube for 1 minute using a syringe pump (Fusion 200, Chemyx) for a final concentration of ˜870 nM CCK in PBS (10 μg/kg dose). […] Final stimulant concentrations were determined using the ratio of dilution and confirmed by osmolarity testing (Model 3320 Osmometer, Advanced Instruments Inc.). During 473 nm laser stimulation conditions, PBS perfusion was continuous, and the laser was pulsed for 1 minute at 40 Hz, 4 volts peak voltage, 20% duty cycle (473 nm, 80 mW laser, RGBlase).
Extracellular voltage was recorded from a pair of platinum iridium wires as described above. A differential amplifier and bandpass filter (1000× gain, 300 Hz-5 kHz bandpass filter; A-M Systems LLC) was used and the signal was processed using a data acquisition board and software (20 kHz sampling rate; Signal Express, National Instruments Corp). The raw data was analyzed using a spike sorting algorithm (MATLAB by MathWorks). Spikes were detected using simple threshold detection based on RMS noise. The firing rate was calculated using a Gaussian kernel smoothing algorithm (200-ms time scale).
Stimulation response was quantified as the maximum firing rate after stimulation (stimulant conditions) or during recording (baseline). Each trial serves as its own control by normalizing the maximum firing rate to the average baseline firing rate (defined as the first two minutes of recording, prior to stimulation onset). Mice were excluded from analysis if no sucrose response was present throughout recording. Maximum firing rate was analyzed across genotype, stimulation condition, and their interaction term by ANOVA, followed by HSD post hoc testing (iMP by SAS Institute).

[1] = tested on: intestinal CCK enteroendocrine cells; experiment: Calcium imaging (GCaMP6s) of enteroendocrine cells in CckCRE_tdTomato intestinal organoids; format: cell-based, mouse; conditions: n=3
Procedure: (§1) For neurons, Phox2bCRE_GCaMP6s (n=3) nodose neurons were dissociated and plated. Nodose ganglia were dissected and digested in Liberase (Roche, 5401054001). Neurons were washed and filtered through a 70 μm cell strainer, then plated on 12 mm coverslips and placed in an incubator overnight. Cells were imaged 1-2 days later. Coverslips were placed in the recording chamber of a Zeiss Examiner Z1 and imaged with a Hamamatsu camera (Orca-flash4.0; C11440) using the Zeiss ZEN software package. For enteroendocrine cells, CckCRE_tdTomato organoids with transduced with ΔG-rabies-GCaMP6s. Organoids were imaged using multi photon microscopy 3-4 days after transduction. Imaging buffer (in mM: 140 NaCl, 5 KCl, 2 CaCl2, 2 MgCl2, 10 HEPES) was continuously perfused over the coverslips. […] Images were analyzed with Fiji ([…]), and cell traces were plotted with Matlab.

nodose neurons = experiment: Calcium imaging of dissociated Phox2bCRE_GCaMP6s nodose neurons; format: cell-based, mouse
Procedure: as §1

iGluSnFR-HEK cells = iGluSnFR-HEK cells cultured alone, multiphoton imaging; format: cell-based; conditions: D-glucose 40 mM
Procedure: HEK 293/17 cells (ATCC CRL-11268) were maintained in DMEM (Gibco 11965) supplemented with 10% FBS (Corning 35-010-CV), Glutamax, and non-essential amino acids (both Gibco). Cells were transfected with 1 ug plasmid pCMV(MinDis) iGluSnFR (Addgene 41732) using 1 ul Lipofectamine 2000 in Optimem (Gibco) in 24-well plates.
The 5.2 Kb iGluSnFR (pCMV(MinDis).iGluSnFR was a gift from Loren Looger; Addgene plasmid #41732) was moved to the zeocin resistant backbone of Addgene #51694 (DRH296: FCK-Optopatch2 was a gift from Adam Cohen) as a NdeI+XhoI fragment. The resulting plasmid (pMEK8) was transfected into HEK 293/17 cells (ATCC CRL-11268) using 1 μl Lipofectamine 2000/ug DNA. Cells were maintained in DMEM (Gibco 11965) supplemented with 10% FBS (Corning 35-010-CV), Glutamax, non-essential amino acids (both Gibco) and 3 μl/ml zeocin ([…], Invitrogen).
(§2) CckCRE_tdTomato enteroendocrine cells were isolated as described above. Isolated cells were mixed with iGluSnFR-HEK cells at a ratio of 10:1, then plated on 1% Matrigel coated coverslips. Control iGluSnFR-HEK cells were plated alone. Cells were incubated for 12-18 hours before imaging. Coverslips were imaged using a multiphoton microscopy system (Bruker Ultima IV with a Chameleon Vision II tunable laser). Imaging frames were captured at 1.876 fps, using 920 nm light. Imaging series were analyzed using Fiji (ImageJ), and cell traces were plotted with Excel.

enteroendocrine cells = experiment: iGluSnFR-HEK cell and CckCRE_tdTomato enteroendocrine cell co-culture, imaging of glutamate release; format: cell-based, mouse; conditions: D-glucose 40 mM, n=3 cultures
Procedure: as §2

[2] = 20 mM D-glucose, mice=3, cells=246

O=C[C@H](O)[C@@H](O)[C@H](O)[C@H](O)CO [D-glucose]
vagal firing rate (vagus nerve): had the same effect; also recorded: stimulate
magnitude of the sugar response as percent fluorescence of the KCl response ([1]; 20 mM D-glucose, 40 mM KCl control): 56.0±20%
calcium transients, percent of the KCl control response ([1]; D-glucose (10 mM) as printed): 56.0%±20.0
percent of Fast Blue positive nodose neurons (innervating small intestine) that did not respond (nodose neurons; 20 mM D-glucose, mice=2, cells=73): 100%
percent of nodose neurons that did not respond (nodose neurons; [2]): 97.3±1.9%
percent of nodose neurons that responded (nodose neurons; [2]): 2.7±1.9%
calcium transients in dissociated nodose ganglia neurons (nodose neurons; D-glucose (10 mM) as printed, n=246 cells from 3 mice): did not elicit calcium transients
calcium response in Fast Blue labeled nodose neurons (nodose neurons; D-glucose (20 mM)): no calcium response was observed
fluorescence response of iGluSnFR-HEK cells cultured alone (iGluSnFR-HEK cells): did not respond
fluorescence response of iGluSnFR-HEK cells cultured alone (iGluSnFR-HEK cells; listed as Dglucose): not
fluorescence response of iGluSnFR-HEK cells in close proximity to enteroendocrine cells (glutamate release) (enteroendocrine cells): rapidly fluoresced green; also recorded: elicits a response
